≈ marks a conversion by molar mass, not a printed value. Non-standard residues stand in square brackets, D forms with d. Residues, ends and D or L forms follow the SMILES beside them. Dip = N[C@H](C(=O)O)C(c1ccccc1)c1ccccc1; 2Nal = N[C@@H](Cc1ccc2ccccc2c1)C(=O)O

The source of these data is ChEMBL document CHEMBL5380796, “Small Molecular Mimetics of Antimicrobial Peptides as a Promising Therapy To Combat Bacterial Resistance” (J Med Chem, 2023).

Series [1] deals with Staphylococcus aureus. The experiment in a line: Antibacterial activity against methicillin-resistant Staphylococcus aureus assessed as bacterial growth inhibition by broth microdilution method. The series is classed as functional.
The subject of series [2] is Escherichia coli. In words: Antibacterial activity against Escherichia coli assessed as bacterial growth inhibition by broth microdilution method. The format is functional.
The test system of series [3] is Escherichia coli. In words: Antibacterial activity against Escherichia coli assessed as bacterial growth inhibition. The series is classed as functional.
Series [4] has as its system Staphylococcus aureus. In words: Antibacterial activity against Staphylococcus aureus assessed as bacterial growth inhibition. The series is classed as functional.
In series [5] the test system is Klebsiella pneumoniae. In words: Antibacterial activity against Klebsiella pneumoniae assessed as bacterial growth inhibition. The series is classed as functional.
Series [6] has as its system Enterococcus. The experiment in a line: Antibacterial activity against […] assessed as bacterial growth inhibition. The series is classed as functional.
For series [7], the system named is Pseudomonas aeruginosa. In words: Antibacterial activity against Pseudomonas aeruginosa ATCC 27853 assessed as bacterial growth inhibition. The series is classed as functional. As to conditions: ATCC27853.
In series [8] the test system is Staphylococcus epidermidis. In words: Antibacterial activity against methicillin-resistant Staphylococcus epidermidis RP62A assessed as bacterial growth inhibition. The format is functional.
Series [9] deals with Staphylococcus aureus. The experiment in a line: Antibacterial activity against methicillin-resistant Staphylococcus aureus ATCC 33591 assessed as bacterial growth inhibition. The format is functional.
The subject of series [10] is Clostridioides difficile. In words: Antibacterial activity against Clostridium difficile UK6 assessed as bacterial growth inhibition. The series is classed as functional.
In series [11] the test system is Escherichia coli. The experiment in a line: Antibacterial activity against Escherichia coli ATCC 25922 assessed as bacterial growth inhibition. The series is classed as functional.
Series [12] relates to Klebsiella pneumoniae. In words: Antibacterial activity against Klebsiella pneumoniae ATCC 13383 assessed as bacterial growth inhibition. The series is classed as functional.
In series [13] the test system is Pseudomonas aeruginosa. In words: Antibacterial activity against Pseudomonas aeruginosa assessed as bacterial growth inhibition. The format is functional.
Series [14] deals with Escherichia coli. The experiment in a line: Antibacterial activity against Escherichia coli assessed as bacterial growth inhibition measured after 24 hrs by CLSI based micro broth double dilution method. The format is functional.
Series [15] deals with Staphylococcus aureus. The experiment in a line: Antibacterial activity against Staphylococcus aureus assessed as bacterial growth inhibition measured after 24 hrs by CLSI based micro broth double dilution method. The format is functional.
For series [16], the system named is Staphylococcus aureus. In words: Antibacterial activity against methicillin-resistant Staphylococcus aureus ATCC 33592 assessed as bacterial growth inhibition incubated for 12 to 16 hrs by microtiter plate reader based analysis. The format is functional. The note with it: time 12-16 hrs.
Series [17] has as its system Pseudomonas aeruginosa. The experiment in a line: Antibacterial activity against Pseudomonas aeruginosa ATCC 27853 assessed as bacterial growth inhibition incubated for 12 to 16 hrs by microtiter plate reader based analysis. The series is classed as functional. The note with it: time 12-16 hrs.
Series [18] has as its system Staphylococcus epidermidis. The experiment in a line: Antibacterial activity against methicillin-resistant Staphylococcus epidermidis RP62A assessed as bacterial growth inhibition incubated for 12 to 16 hrs by microtiter plate reader based analysis. The series is classed as functional. As to conditions: time 12-16 hrs.
Series [19] relates to Escherichia coli. The experiment in a line: Antibacterial activity against Escherichia coli ATCC 25922 assessed as bacterial growth inhibition incubated for 12 to 16 hrs by microtiter plate reader based analysis. The series is classed as functional. The note with it: time 12-16 hrs.
Series [20] has as its system Enterococcus faecalis. In words: Antibacterial activity against vancomycin- resistant Enterococcus faecalis ATCC 700802 assessed as bacterial growth inhibition incubated for 12 to 16 hrs by microtiter plate reader based analysis. The series is classed as functional. The note with it: ATCC700802, time 12-16 hrs.
Series [21] is described as follows: Hemolytic activity in human RBC incubated for 10 mins by absorbance based analysis. The series is classed as toxicity, cell-based, Erythrocyte. The note with it: red blood cells (erythrocytes).
A short description of series [22]: Cytotoxicity against human HepG2 cells assessed as reduction in cell viability. The series is classed as toxicity, cell-based.
A short description of series [23]: Cytotoxicity against mouse 3T3 cells assessed as reduction in cell viability. The series is classed as toxicity, cell-based. As to conditions: NIH3T3 cells.
The subject of series [24] is Staphylococcus aureus. In words: Antibacterial activity against Staphylococcus aureus ATCC 25923 assessed as bacterial growth inhibition by microdilution assay. The series is classed as functional. (In general: Dilution methods test growth across graded concentrations, often in twofold steps.)
Series [25] concerns Micrococcus luteus. In words: Antibacterial activity against Micrococcus luteus DSM 1790 assessed as bacterial growth inhibition by microdilution assay. The format is functional.
The test system of series [26] is Staphylococcus aureus. The experiment in a line: Antibacterial activity against Staphylococcus aureus ATCC 25923 assessed as bacterial growth inhibition. The format is functional.

Consider `N=C(N)NCCC[C@@H]1NC(=O)[C@H](CCCNC(=N)N)NC(=O)[C@H](CCCNC(=N)N)NC(=O)[C@H](C(c2ccccc2)c2ccccc2)NC(=O)[C@H](C(c2ccccc2)c2ccccc2)NC(=O)[C@H](C(c2ccccc2)c2ccccc2)NC(=O)[C@H](CCCNC(=N)N)NC1=O` (cyclo(RRRR[Dip][Dip][Dip])), for which the MIC (usually the smallest concentration in the dilution series that meets the test's criterion for growth inhibition) was 3.1 µg/mL (≈ 2.39 µM) in series [1] and 12.5 µg/mL (≈ 9.66 µM) in series [2].

In the case of `CC(C)(C)c1cc(C(C)(C)C)c2[nH]c(C(C)(C)C)c(C[C@H](N)C(=O)N[C@@H](CCCNC(=N)N)C(=O)NCc3ccccc3)c2c1`, the MIC in series [3] came to 10 µg/mL (≈ 16.2 µM); in series [4] it was 2.5 µg/mL (≈ 4.05 µM).

On to `CC(=O)c1cccc(C(=O)Nc2cc(C(C)(C)C)cc(NC(=O)c3cccc(C(=O)Nc4cc(C(C)(C)C)cc(N)c4SCCN)c3)c2SCCN)c1`, for which the results for the MIC in series [3] and in series [5] were 19 µg/mL (≈ 25.2 µM) and 66 µg/mL (≈ 87.4 µM), respectively.

As to `N=C(N)NCCC[C@@H]1NC(=O)[C@H](CCCNC(=N)N)NC(=O)[C@H](CCCNC(=N)N)NC(=O)[C@H](Cc2ccc3ccccc3c2)NC(=O)[C@H](Cc2ccc3ccccc3c2)NC(=O)[C@H](Cc2ccc3ccccc3c2)NC(=O)[C@H](CCCNC(=N)N)NC1=O` (cyclo(RRRR[2Nal][2Nal][2Nal])), the values for the MIC in series [1] and in series [2] were 3.1 µg/mL (≈ 2.55 µM) and 12.5 µg/mL (≈ 10.3 µM), respectively.

Consider `CC(C)(C)c1cc(NC(=O)c2cc(OCCN)cc(C(=O)Nc3cc(C(C)(C)C)cc(NC(=O)[C@H](N)CCCNC(=N)N)c3SCCN)c2)c(SCCN)c(NC(=O)[C@H](N)CCCNC(=N)N)c1`, for which the MIC in series [3] and in series [4] was 12.5 µg/mL (≈ 12.8 µM) throughout.

Take `CCCCCCN1C(=N)N(CC(=O)Nc2cccc(NC(=O)CN3C[C@H](Cc4ccccc4)N(CCCCCC)C3=N)c2)C[C@@H]1Cc1ccccc1`: the MIC stood at 0.75 µg/mL (≈ 1.06 µM) in [6]; 6 µg/mL (≈ 8.49 µM) in [7]; 0.75 µg/mL (≈ 1.06 µM) in series [8]; 0.16 µg/mL (≈ 0.226 µM) in [9]; 1 µg/mL (≈ 1.41 µM) in [10]; 1.5 µg/mL (≈ 2.12 µM) in series [11]. In addition, the minimum inhibitory concentration (MIC) in series [12] turned out to be 1.5 µg/mL (≈ 2.12 µM).

`CC(C)NC(=O)N[C@H](CNC(=O)N[C@@H](CCCCN)CNC(=N)N[C@H](CNC(=O)N[C@H](CNC(=O)N[C@@H](CCCCN)CNC(=O)N[C@H](CNC(=O)N[C@@H](CCCCN)CNC(N)=O)Cc1c[nH]c2ccccc12)C(C)C)Cc1c[nH]c2ccccc12)C(C)C`: the MIC is 64 µg/mL (≈ 50.8 µM) in series [3], 32 µg/mL (≈ 25.4 µM) in [4] and 256 µg/mL (≈ 203 µM) in series [13].

For `COC(=O)[C@@H]1CCCCc2cc3ccccc3c(c2OC)-c2c(OC)c(cc3ccccc23)CC(NC(C)=O)C(=O)N[C@H](CCCCN)C(=O)N1` (some centres undefined), the minimum inhibitory concentration (MIC) in series [4] is 15 µg/mL (≈ 21.5 µM).

In the case of `CCCOc1c2cc(C[N+](C)(C)C)cc1Cc1cc(C[N+](C)(C)C)cc(c1OCCC)Cc1cc(C[N+](C)(C)C)cc(c1OCCC)Cc1cc(C[N+](C)(C)C)cc(c1OCCC)C2`, the minimal inhibitory concentration (MIC) in series [14] and in series [15] was 16 µg/mL in each case.

On to H-WRWRW-NH2, for which the MIC in series [3] was 15 µg/mL; in series [4], 10 µg/mL.

For the compound `CCCCCCCCCCCCCCCC(=O)N[C@@H](CCCCN)C(=O)N[C@@H](Cc1ccccc1)CN(CC(N)=O)C(=O)CCCN`, the MIC in series [16] came out at 2 µg/mL (≈ 3.04 µM); in [17] it was 2 µg/mL (≈ 3.04 µM); in series [18], 2 µg/mL (≈ 3.04 µM); in series [19], 4 µg/mL (≈ 6.07 µM); in series [20], 2 µg/mL (≈ 3.04 µM). The HC50 (usually the concentration that lyses half of the red blood cells) at 10 min in series [21] was 150 µg/mL.

In the case of `CC(C)(C)c1cc(C(C)(C)C)c2[nH]c(C(C)(C)C)c(C[C@H](NC(=O)[C@@H](N)CCCNC(=N)N)C(=O)N[C@@H](CCCNC(=N)N)C(=O)NCCc3ccccc3)c2c1` [LTX-109], the MIC amounted to 7.5 µg/mL (≈ 9.52 µM) in series [3] and 2.5 µg/mL (≈ 3.17 µM) in series [4].

`COC(=O)[C@H](CCCNC(=N)N)NC(=O)[C@H](Cc1c(C(C)(C)C)[nH]c2c(C(C)(C)C)cc(C(C)(C)C)cc12)NC(=O)[C@@H](N)CCCNC(=N)N`: the MIC is 20 µg/mL (≈ 28.6 µM) in series [3] and 5 µg/mL (≈ 7.15 µM) in series [4].

In the case of `COc1cc(OC)c(C(=O)Nc2cc(C(F)(F)F)cc(NC(=O)CCCCNC(=N)N)c2SCCN)cc1C(=O)Nc1cc(C(F)(F)F)cc(NC(=O)CCCCNC(=N)N)c1SCCN`, the MIC in series [3] came to 3.1 µg/mL (≈ 3.18 µM); in series [4], 0.2 µg/mL (≈ 0.205 µM); in series [13], 13 µg/mL (≈ 13.3 µM). In addition, the concentration giving a half-maximal response (EC50) in series [22] and in series [23] was more than 2000 µg/mL in each case.

With `CC(C)(C)c1ccc(CC(N)C(=O)NC(CCCNC(=N)N)C(=O)Nc2cc(NC(=O)C(CCCNC(=N)N)NC(=O)C(N)Cc3ccc(C(C)(C)C)cc3)cc(C(N)=O)c2)cc1` (centres undefined), the MIC in series [24] was found to be 1.9 µg/mL; in series [25] it was 1.9 µg/mL; in [26] it was 1.9 µg/mL (≈ 2.18 µM).

`CC(C)CCOC(=O)[C@H](CC(C)C)NC(=O)[C@@H](CCCNC(=N)N)NC(=O)[C@@H](CCCCN)NC(=O)COc1ccc2ccccc2c1-c1c(OCCC(C)C)ccc2ccccc12`: the MIC in series [4] was 2 µg/mL (≈ 2.27 µM).
